Experiments:
[1] = system: tracheo-bronchial mucus secretion; assay: Time-course of red phenol excretion (long-lasting action); type: in vivo, Albino Swiss male mice
Experimental: (§1) Albino Swiss male mice are used in this test and the animals are killed 30 minutes after dye treatment. The dye content in BAL's is evaluated spectrometrically at 546 nm.
Infact, a substance can be administered 2, 1 and 1/2 hours before the intraperitoneal administration of the red phenol marker. If the animals are killed, as usual, half an hour after the dyestuff treatment, the overall time of drug action increases from 1 hr to 11/2 and 21/2 hrs respectively.

[2] = system: tracheo-bronchial mucus secretion; assay: Uranine secretion in BAL (mucus secretion); type: in vivo, Albino Swiss female mice
Experimental: (§2) The ability of a drug to modify the tracheo-bronchial mucus secretion is evaluated measuring the excretion of a dyestuff in the respiratory tree.
The animals are sacrified 30 minutes after; the respiratory tree is excised and accurately washed. The washing fluids (BAL) are collected and evaluated for the uranine content using a spectrofluorimetric technique.
as §1

[3] = system: tracheo-bronchial mucus secretion; assay: Red phenol secretion in BAL (mucus secretion); type: in vivo, Albino Swiss male mice
Experimental: as §2, §1
An increased red phenol secretion in BAL's after drug treatment means stimulation of mucus production.

[4] = system: hyperreactive spasmus induced by acetylcholine challenge; assay: Hyperreactive spasmus induced by acetylcholine challenge in anaesthetized guinea-pigs submitted to forced tobacco-smoking respiration; type: in vivo; conditions: for activity as reference substance in the acetylcholine challenge procedure: i.m. administration
[5] = system: tracheo-bronchial mucus secretion; conditions: known effect of therapeutically active drugs; cited from earlier work
[6] = 100 mg/kg os, overall experiment 1 1/2 hours
[7] = 100 mg/kg os, overall experiment 2 1/2 hours
[8] = 100 mg/kg os, overall experiment 1 hour

SMILES | Time-course of % increase of red phenol excretion (vs. untreated animals) [1, 6] [%] | Time-course of % increase of red phenol excretion (vs. untreated animals) [1, 7] [%] | Time-course of % increase of red phenol excretion (vs. untreated animals) [1, 8] [%] | % increase of dyestuff secretion in BAL (vs. untreated animals), uranine ([2]; 25 mg/kg os) [%] | % increase of dyestuff secretion in BAL (vs. untreated animals), uranine ([2]; 50 mg/kg os) [%] | % increase of dyestuff secretion in BAL (vs. untreated animals), uranine ([2]; 100 mg/kg os) [%] | % increase of dyestuff secretion in BAL (vs. untreated animals), red phenol ([3]; 25 mg/kg os) [%] | % increase of dyestuff secretion in BAL (vs. untreated animals), red phenol ([3]; 50 mg/kg os) [%] | % increase of dyestuff secretion in BAL (vs. untreated animals), red phenol ([3]; 100 mg/kg os) [%] | activity as reference substance in the acetylcholine challenge procedure [4] | Time-course of % increase of red phenol excretion (vs. untreated animals) ([1]; 200 mg/kg os, overall experiment 1 1/2 hours) [%] | Time-course of % increase of red phenol excretion (vs. untreated animals) ([1]; 200 mg/kg os, overall experiment 2 1/2 hours) [%] | Time-course of % increase of red phenol excretion (vs. untreated animals) ([1]; 200 mg/kg os, overall experiment 1 hour) [%] | % increase of dyestuff secretion in BAL (vs. untreated animals), uranine ([2]; 200 mg/kg os) [%] | % increase of dyestuff secretion in BAL (vs. untreated animals), red phenol ([3]; 200 mg/kg os) [%] | uranine content in the BAL's in respect to control values (in words) [5] | reduction of hyperreactive spasmus induced by acetylcholine challenge ([4]; e.v. treatment, 5 to 30 mg/kg, forced tobacco-smoking respiration)
COc1ccccc1OCCSCC(=O)O [Substance A, 3-thia-5-(2-methoxy-phenoxy)-pentanoic acid] | 98 | 62 | 104 | 45 | 98 | 138 | 25 | 50 | 104 |  |  |  |  |  |  |  | 
COc1ccccc1OCC1COC(CSCC(=O)O)O1 (centres unmarked) [Substance C, 3-thia-4-[4-(2-methoxy-phenoxy)methyl-(Z,E)-dioxolan-2-yl]-butanoic acid] | 72 | 42 | 143 | 25 | 52 | 101 | 47 | 83 | 143 |  |  |  |  |  |  |  | 
C[C@H]1C[C@@H]2[C@H]([C@@H](O)C[C@@]3(C)[C@H]2CC[C@]3(O)C(=O)CO)[C@@]2(C)C=CC(=O)C=C12 [6-α-methylprednisolone] |  |  |  |  |  |  |  |  |  | Positive |  |  |  |  |  |  | 
O=C(O)c1cc(=O)c2c(OCC(O)COc3cccc4oc(C(=O)O)cc(=O)c34)cccc2o1 [sodium dichromoglicate] |  |  |  |  |  |  |  |  |  | Positive |  |  |  |  |  |  | 
CC1=CCC(C(C)(C)O)CC1O (centres unmarked) [Substance F, sobrerol, reference compound] |  |  |  |  | 54 | 104 |  | 48 | 69 |  | 73 | 30 | 108 | 144 | 111 | increase the uranine content in the BAL's in a dose dependent way | 
COc1ccccc1OCCSCC(=O)NCc1cccnc1 [Substance B, N-(3-pyridyl)methy 1-3-thia-5 (2-methoxy-phenoxy)pentanoic acid amide] | 119 | 62 | 126 | 70 | 140 | 190 | 12 | 73 | 126 |  |  |  |  |  |  |  | able to reduce the hyperreactive spasmus induced by acetylcholine challenge in dose dependent way
COc1ccccc1OCC1COC(CSCC(=O)NCc2cccnc2)O1 (centres unmarked) [Substance D, N-(3-pyridyl)methyl-3-thia-4-[4-(2-methoxy-phenoxy)-methyl-(Z,E)-(1,3)-dioxolan-2-yl]-butanoic acid amide] | 111 | 58 | 179 | 66 | 132 | 284 | 49 | 120 | 179 |  |  |  |  |  |  |  | 
CN(Cc1cc(Br)cc(Br)c1N)C1CCCCC1 [Substance E, bromexine, reference compound] | 61 | 21 | 98 | 0 | 50 | 63 | 28 | 69 | 83 |  |  |  |  |  |  | increase the uranine content in the BAL's in a dose dependent way | 
